Counter-ions that a name gives are not always drawn.
Target: T1, Human ADA (Homo sapiens, UniProt P00813)
T1 construct: made in house
T1 sequence (P00813 1-363): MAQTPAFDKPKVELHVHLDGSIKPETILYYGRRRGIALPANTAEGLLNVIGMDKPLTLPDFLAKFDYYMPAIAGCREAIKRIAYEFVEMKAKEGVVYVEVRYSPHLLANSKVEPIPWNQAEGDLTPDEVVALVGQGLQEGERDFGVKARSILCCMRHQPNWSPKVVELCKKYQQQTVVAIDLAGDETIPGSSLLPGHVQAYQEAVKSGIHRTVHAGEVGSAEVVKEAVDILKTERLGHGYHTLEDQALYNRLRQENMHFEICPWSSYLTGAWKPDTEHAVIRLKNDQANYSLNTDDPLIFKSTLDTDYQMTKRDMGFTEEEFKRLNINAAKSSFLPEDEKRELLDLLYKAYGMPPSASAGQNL
Assay: Adenosine Deaminase (ADA) Enzyme Assay
Format: biochemical
Details: 0.16 μg/ml ADA, 0.1 mM adenosine, 10 mM phosphate buffer saline pH 7.4, room temperature, decrease in A265 for 3 minutes
Procedure: Adenosine Deaminase (ADA) Enzyme Assay
• 1-{(3R,4S)-4-Hydroxy-1-[2-(4-ethoxyphenyl)-4-benzoxazolyl]-3-pentyl}-imidazole-4-carboxamide hydrochloride (E0023) • 1-{(3R,4S)-4-Hydroxy-1-[2-(2-thienyl)-7-benzoxazolyl]-3-pentyl}-imidazole-4-carboxamide hydrochloride (E0028) Test Method:
The reaction velocity (V) is measured by a change in absorbance at 265 nm (A265) resulting from the deamination of adenosine. Human ADA was expressed and purified from ADA-deficient bacterial strain. Reaction mixtures of a total volume of 200 μl contained 0.16 μg/ml of ADA and 0.1 mM of adenosine and test compound in 10 mM phosphate buffer saline (pH 7.4). The reaction was started by addition of ADA to a mixture of adenosine and test compound. The reaction was followed at room temperature by recording decrease in A265 for 3 minutes in SPECTRAmax 250 (Molecular Devices, USA) to automatically calculate Vmax. Inhibitory potency of test compound was expressed as IC50 value, the drug concentration required to produce 50% inhibition of Vmax in comparison to vehicle treatment.

SMILES	IC50 [nM]
C[C@H](O)[C@@H](CCc1cccc2nc(-c3cccs3)oc12)n1cnc(C(N)=O)c1 [Compound E0028, 1-{(3R,4S)-4-Hydroxy-1-[2-(2-thienyl)-7-benzoxazolyl]-3-pentyl}imidazole-4-carboxamide hydrochloride]	< 20
CCOc1ccc(-c2nc3c(CC[C@H]([C@H](C)O)n4cnc(C(N)=O)c4)cccc3o2)cc1 [Compound E0023, 1-{(3R,4S)-4-Hydroxy-1-[2-(4-ethoxyphenyl)-4-benzoxazolyl]-3-pentyl}imidazole-4-carboxamide hydrochloride]	< 20
